Experimental findings from US5192766A, “N-acryloylpiperazine derivatives, their preparation and their use as PAF antagonists” (Sankyo Company, Limited, priority 1989, dated 1993) are described below.

By IC50 is commonly meant the concentration needed to halve the response being measured.

In data set [1] the test system is PAF-induced hypotension. Description: Inhibition of PAF-induced hypotension. The class given is in vivo, Wistar-Imamichi rats. To be noted: Rattus norvegicus, iv, 1 min; anesthetized rats; l-C16:0 PAF 10 ng/kg i.v.; test compound i.v. cumulatively, 1 min before PAF; read-out: Inhibitory effect ID50. As to the method: Inhibition of PAF-induced hypotension
The test animals used were Wistar-Imamichi rats, each weighing from 350 to 450 g, anesthetized with Inactin (90 mg/kd, intraperitoneally).
Blood pressure was continuously measured throughout the experiment through a cannula inserted into the femoral artery. Each drug sample to be tested was intravenously injected through a cannula inserted into the femoral vein.
At first, l-C16:0 PAF was injected intravenously in amounts of 10 ng/kg at each injection at intervals of 5 minutes until the degree of the hypotensive response became constant. Then, each drug sample to be treated was intravenously injected. After one minute, the same dose of PAF was administered again. The drug sample was cumulatively administered. From its inhibition rate against the PAF-induced hypotensive effect, the 50% inhibitive dose (ID50) was determined, and is regarded as an index of PAF-antagonist activity. For administration, the PAF was dissolved in physiological saline solution containing 0.25% w/v of bovine serum albumin (BSA). The compounds under test were dissolved in dimethylformamide for use.
CV-3988 is disclosed in U.S. Pat. No. 4,408,052, and is structurally related to PAF itself.
In this Table, the compounds of the invention are identified by the number of the foregoing Example in which they were prepared.

Data set [2] relates to blood platelet (PAF-induced aggregation). As to the kind of experiment: Inhibitory effect in vitro against PAF-induced blood platelet aggregation. The class given is cell-based. Conditions: Oryctolagus cuniculus, 5 min; rabbit platelet rich plasma; l-C16:0 PAF final 10^-8 ~3×10^-8 M; 5 min observation. As to the method:
Inhibitory effect in vitro against PAF-induced blood platelet aggregation
Blood samples were drawn from a rabbit and one part by volume of each sample was immediately mixed with 1/9 part of a 3.8% w/v aqueous solution of sodium citrate. The samples were centrifuged at 150×G at room temperature for 15 minutes to obtain a platelet rich plasma (PRP) fraction from the upper layer. The remains were further centrifuged at 1,000×G for 15 minutes to obtain a platelet poor plasma (PPP) fraction from the upper layer. The PRP and PPP fractions were mixed appropriately, to obtain a sample in which the final count of blood platelets was adjusted to be 6×10^5 per ul. According to the method reported by Born et al. [G. V. R. Born et al.: J. Physiol. 62, 67-68 (1962)], blood platelet aggregation was determined by an increase in light transmission measured using an aggregometer. 3 ul of a solution of the test compound in dimethyl sulfoxide were added to 272 ul of PRP, and, after 1 minute, 25 ul of a physiological saline solution containing l-c16:0 PAF (at a final concentration of 10^-8 ~3×10^-8 M) were added. […] At the end of this value and the value of PAF-induced aggregation which was observed when dimethyl sulfoxide only was used without the addition of any test compound. IC50 values were calculated from the dose-response curve.

Data set [3] in a line: Acute toxicity. The format is in vivo. To be noted: oral, 300 mg/kg, 3 male ddy mice (5 weeks old), observed one week. As to the method:
Each of the compounds prepared as described in Examples 2, 7 and 15 was separately administered orally in a dose of 300 mg/kg to each of a group of 3 male ddy mice (5 weeks old).

The target in data set [4] is T1, PAF-receptor (Oryctolagus cuniculus, UniProt G1TEI7).
T1 construct: is regarded as a PAF-receptor membrane fraction; from tissue; host or cells: rabbit blood platelets (membrane fraction from sucrose density layers)
As to the kind of experiment: Inhibitor effect on PAF-receptor binding. To be noted: specific binding of ^3H-PAF; rabbit platelet PAF-receptor membrane fraction; read-out: Inhibition of receptor binding (IC50 M). From the text:
Inhibitor effect on PAF-receptor binding
Blood samples were drawn from the heart of a rabbit. 1 part by volume of each sample was mixed immediately with 1/9 part of 0.77M solution of disodium ethylenediaminetetraacetate. After a similar procedure to that described in Experiment 2, a precipitated blood platelet sample was obtained. This blood platelet sample was washed, and, after repeated freezing and thawing for cellular breakdown, it was laid on top of double layers consisting of […] and 1.5M sucrose solutions. By centrifugation at 63,500×G, for 2 hours at 4° C., the fraction obtained from the interface between the 0.25M and 1.5M sucrose solutions was collected and is regarded as a PAF-receptor membrane fraction. A receptor binding experiment was conducted according to a method very similar to that reported by Hwang et al. [San-Bao Hwang et al.: J. Biol. Chem. 260, 15639-15645 (1985)]. The specific binding of ^3 H-PAF was measured using a Wattman GF/C filter. A test compound was dissolved in dimethyl sulfoxide and diluted 100 fold with a buffer solution containing 0.5% bovine serum albumin. Nine parts by weight of the solution, for a receptor binding experiment, was mixed with one part of the test compound solution prepared above. The percent inhibition of the specific binding was plotted for a log concentration of the test compound, and the 50% inhibitory concentration (IC50) was calculated from the linear line connecting all the plotted points.

Structures are written as SMILES.

T1 sequence (G1TEI7 1-342): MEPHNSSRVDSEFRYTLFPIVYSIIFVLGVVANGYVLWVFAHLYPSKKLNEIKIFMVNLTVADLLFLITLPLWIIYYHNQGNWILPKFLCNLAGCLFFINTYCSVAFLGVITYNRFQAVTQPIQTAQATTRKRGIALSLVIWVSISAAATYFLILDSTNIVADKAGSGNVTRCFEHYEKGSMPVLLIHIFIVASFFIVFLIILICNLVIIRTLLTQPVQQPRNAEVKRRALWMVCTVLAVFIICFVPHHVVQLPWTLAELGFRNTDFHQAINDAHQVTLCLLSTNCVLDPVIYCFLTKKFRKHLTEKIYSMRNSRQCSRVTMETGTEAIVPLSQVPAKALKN

For the molecule `COc1ccc(C(=CC(=O)N2CCN(C(=O)c3cc(OC)c(OC)c(OC)c3)CC2)c2ccc(OC)cc2)cc1` [Example 2, 1-[3,3-Bis(4-methoxyphenyl)acryloyl]-4-(3,4,5-trimethoxybenzoyl)piperazine], the ED50 in data set [1] amounted to 0.039 mg/kg. For the same molecule, in data set [2], the IC50 worked out at 200 nM. In data set [3], the “Acute toxicity (survival)” value is listed as “all mice survived”.

As to `COc1ccc(/C(=C/C(=O)N2CCN(C(=O)c3cc(OC)c(OC)c(OC)c3)CC2)c2ccccc2)cc1OC` [Example 7, 1-[(E)-3-(3,4-Dimethoxyphenyl)cinnamoyl]-4-(3,4,5-trimethoxybenzoyl)piperazine], the ED50 in data set [1] was determined as 0.014 mg/kg. Also, the “Acute toxicity (survival)” value in data set [3] was “all mice survived”.

With `COc1ccc(/C(=C/C(=O)N2CCN(C(=O)c3cc(OC)c(OC)c(OC)c3)CC2)c2ccc(Cl)cc2)cc1OC` [Example 15, 1-[(E)-3-(4-Chlorophenyl)-3-(3,4-dimethoxyphenyl)acryloyl]-4-(3,4,5-trimethoxybenzoyl)piperazine], the ED50 in data set [1] amounted to 0.022 mg/kg. For the same molecule, the IC50 in data set [2] is 68 nM; in data set [4], 43 nM. For the same molecule, the “Acute toxicity (survival)” value in data set [3] was “all mice survived”.

Consider `CCCOc1ccc(/C(=C/C(=O)N2CCN(C(=O)c3cc(OC)c(OC)c(OC)c3)CC2)c2ccc(Cl)c(Cl)c2)cc1` [Example 49, 1-[(Z)-3-(3,4-Dichlorophenyl)-3-(4-propoxyphenyl)acryloyl]-4-(3,4,5-trimethoxybenzoyl)piperazine], for which the ED50 in data set [1] amounted to 0.008 mg/kg. Also, the half-maximal inhibitory concentration (IC50) in data set [2] worked out at 66 nM; in data set [4], 21 nM.

On to `COc1ccc(/C(=C/C(=O)N2CCN(C(=O)c3cc(OC)c(OC)c(OC)c3)CC2)c2cccc(C(F)(F)F)c2)cc1` [Example 75, 1-[(Z)-3-(4-Methoxyphenyl)-3-(3-trifluoromethylphenyl)acryloyl]-4-(3,4,5-trimethoxybenzoyl)piperazine], for which the ED50 in data set [1] was determined as 0.0051 mg/kg. Besides, the IC50 was determined as 99 nM in data set [2] and 23 nM in data set [4].

Consider `COc1ccc(/C(=C/C(=O)N2CCN(C(=O)c3cc(OC)c(OC)c(OC)c3)CC2)c2cc(Cl)cc(Cl)c2)cc1` [Example 77, 1-[(Z)-3-(4-Methoxyphenyl)-3-(3,5-dichlorophenyl)acryloyl]-4-(3,4,5-trimethoxybenzoyl)piperazine], for which, in data set [1], the ED50 stood at 0.0037 mg/kg. The IC50 in data set [2] is 26 nM; in data set [4], 14 nM.

In the case of `COc1ccc(/C(=C/C(=O)N2CCN(C(=O)c3cc(OC)c(OC)c(OC)c3)CC2)c2cc(F)cc(F)c2)cc1` [Example 87, 1-[(Z)-3-(4-Methoxyphenyl)-3-(3,5-difluorophenyl)acryloyl]-4-(3,4,5-trimethoxybenzoyl)piperazine], the ED50 in data set [1] was 0.011 mg/kg. For the same molecule, the IC50 in data set [2] is 65 nM; in data set [4], 76 nM.
